Patent US7947720B2, “3,4-di-substituted cyclobutene-1,2-diones as CXC-chemokine receptor ligands” (Schering Corporation, priority 2001, dated 2011)

Molecular target: T1, hCXCR2-CHO overexpressing membranes (Homo sapiens, UniProt P25025)
T1 construct: purchased Biosignal; host or cells: CHO cells (membranes)
T1 sequence (P25025 1-360): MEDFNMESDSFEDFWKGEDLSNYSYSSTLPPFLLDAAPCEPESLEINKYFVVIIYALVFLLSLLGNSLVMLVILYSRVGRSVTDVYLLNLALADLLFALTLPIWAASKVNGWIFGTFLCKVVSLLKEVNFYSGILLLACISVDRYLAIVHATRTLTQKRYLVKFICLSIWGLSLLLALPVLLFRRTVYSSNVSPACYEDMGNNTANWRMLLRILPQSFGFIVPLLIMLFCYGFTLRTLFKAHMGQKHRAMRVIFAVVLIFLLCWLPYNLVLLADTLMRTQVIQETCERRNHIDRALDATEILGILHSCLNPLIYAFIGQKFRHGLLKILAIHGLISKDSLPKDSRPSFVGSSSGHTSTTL
Experiment: CXCR2 SPA Assay
Assay type: binding
Details: [125I]-IL-8 0.1 nM
Experimental: For each well of a 96 well plate, a reaction mixture of 4 μg hCXCR2-CHO overexpressing membranes (Biosignal) and 200 μg/well WGA-SPA beads (Amersham) in 100 μl was prepared in CXCR2 assay buffer (25 mM HEPES, pH 7.4, 2 mM CaCl2, 1 mM MgCl2). A 0.4 nM stock of ligand, [125I]-IL-8 (NEN), was prepared in the CXCR2 assay buffer. 20× stock solutions of test compounds were prepared in DMSO (Sigma). A 6× stock solution of GRO-α (R&D) was prepared in CXCR2 assay buffer. The above solutions were added to a 96-well assay plate (PerkinElmer or Corning) as follows: 10 μl test compound or DMSO, 40 ul CXCR2 assay buffer or GRO-α stock, 100 μl of reaction mixture, 50 μl of ligand stock (Final [Ligand]=0.1 nM). When 40× stock solutions of test compounds in DMSO were prepared, then the above protocol was used except instead 5 μl test compound or DMSO and 45 μl CXCR2 assay buffer were used. The assay plates were shaken for 5 minutes on a plate shaker, then incubated for 2-8 hours before cpm/well were determined in Microbeta Trilux counter (PerkinElmer). % Inhibition of total binding minus non-specific binding (250 nM Gro-α or 50 μM antagonist) was determined and IC50 values calculated.

`CC[C@@H](Nc1c(Nc2cccc(C(=O)N(C)C)c2O)c(=O)c1=O)c1cc(C(C)C)co1` [Example 360.106] was tested, and the Ki was 0.8 nM.
